Results reported in ChEMBL document CHEMBL4011590, “Structure-activity relationship studies on 3,5-dinitrophenyl tetrazoles as antitubercular agents” (Eur J Med Chem, 2017).
≈ marks a conversion by molar mass, not a printed value.

Columns and labels:
[1] = tested on: Mycobacterium tuberculosis; experiment: Antimycobacterial activity against Mycobacterium tuberculosis H37Rv CNCTC My 331/88 after 14 days by micromethod; type: functional; conditions: H37Rv CNCTC My 331/88, 336 h
[2] = tested on: Mycobacterium tuberculosis; experiment: Antimycobacterial activity against Mycobacterium tuberculosis H37Rv CNCTC My 331/88 after 21 days by micromethod; type: functional; conditions: H37Rv CNCTC My 331/88, 504 h
Mycobacterium avium [3] = experiment: Antimycobacterial activity against Mycobacterium avium CNCTC My 330/80 after 14 days by micromethod; type: functional; conditions: CNCTC My 330/80, 336 h
Mycobacterium avium [4] = experiment: Antimycobacterial activity against Mycobacterium avium CNCTC My 330/80 after 21 days by micromethod; type: functional; conditions: CNCTC My 330/80, 504 h
Mycobacterium kansasii [5] = experiment: Antimycobacterial activity against Mycobacterium kansasii CNCTC My 235/80 after 7 days by micromethod; type: functional; conditions: CNCTC My 235/80, 168 h
Mycobacterium kansasii [6] = experiment: Antimycobacterial activity against Mycobacterium kansasii CNCTC My 235/80 after 14 days by micromethod; type: functional; conditions: CNCTC My 235/80, 336 h
Mycobacterium kansasii [7] = experiment: Antimycobacterial activity against Mycobacterium kansasii CNCTC My 235/80 after 21 days by micromethod; type: functional; conditions: CNCTC My 235/80, 504 h
Mycobacterium kansasii [8] = experiment: Antimycobacterial activity against Mycobacterium kansasii isolate 6509/96 after 7 days by micromethod; type: functional; conditions: isolate 6509/96, 168 h
Mycobacterium kansasii [9] = experiment: Antimycobacterial activity against Mycobacterium kansasii isolate 6509/96 after 14 days by micromethod; type: functional; conditions: isolate 6509/96, 336 h
Mycobacterium kansasii [10] = experiment: Antimycobacterial activity against Mycobacterium kansasii isolate 6509/96 after 21 days by micromethod; type: functional; conditions: isolate 6509/96, 504 h
CHO-K1 = experiment: Cytotoxicity against CHOK1 cells after 24 hrs by MTT assay; type: cell-based; conditions: Cricetulus griseus, CHO-K1, 24 h
Staphylococcus aureus [11] = experiment: Antibacterial activity against Staphylococcus aureus ATCC 6538 after 24 hrs by broth microdilution method; type: functional; conditions: ATCC 6538, 24 h
Staphylococcus aureus [12] = experiment: Antibacterial activity against Staphylococcus aureus ATCC 6538 after 48 hrs by broth microdilution method; type: functional; conditions: ATCC 6538, 48 h
Staphylococcus aureus [13] = experiment: Antibacterial activity against methicillin-resistant Staphylococcus aureus HK5996/08 after 24 hrs by broth microdilution method; type: functional; conditions: HK5996/08, 24 h
Staphylococcus aureus [14] = experiment: Antibacterial activity against methicillin-resistant Staphylococcus aureus HK5996/08 after 48 hrs by broth microdilution method; type: functional; conditions: HK5996/08, 48 h
[15] = tested on: Staphylococcus epidermidis; experiment: Antibacterial activity against Staphylococcus epidermidis HK6966/08 after 24 hrs by broth microdilution method; type: functional; conditions: HK6966/08, 24 h
[16] = tested on: Staphylococcus epidermidis; experiment: Antibacterial activity against Staphylococcus epidermidis HK6966/08 after 48 hrs by broth microdilution method; type: functional; conditions: HK6966/08, 48 h
Enterococcus sp. [17] = experiment: Antibacterial activity against Enterococcus sp. HK14365/08 after 24 hrs by broth microdilution method; type: functional; conditions: HK14365/08, 24 h
Enterococcus sp. [18] = experiment: Antibacterial activity against Enterococcus sp. HK14365/08 after 48 hrs by broth microdilution method; type: functional; conditions: HK14365/08, 48 h
Escherichia coli [19] = experiment: Antibacterial activity against Escherichia coli ATCC 8739 after 24 hrs by broth microdilution method; type: functional; conditions: ATCC 8739, 24 h
Escherichia coli [20] = experiment: Antibacterial activity against Escherichia coli ATCC 8739 after 48 hrs by broth microdilution method; type: functional; conditions: ATCC 8739, 48 h
Klebsiella pneumoniae [21] = experiment: Antibacterial activity against Klebsiella pneumoniae HK11750/08 after 24 hrs by broth microdilution method; type: functional; conditions: HK11750/08, 24 h
Klebsiella pneumoniae [22] = experiment: Antibacterial activity against Klebsiella pneumoniae HK11750/08 after 48 hrs by broth microdilution method; type: functional; conditions: HK11750/08, 48 h
Klebsiella pneumoniae [23] = experiment: Antibacterial activity against extended spectrum beta-lactamase producing Klebsiella pneumoniae HK14368/08 after 24 hrs by broth microdilution method; type: functional; conditions: HK14368/08, 24 h
Klebsiella pneumoniae [24] = experiment: Antibacterial activity against extended spectrum beta-lactamase producing Klebsiella pneumoniae HK14368/08 after 48 hrs by broth microdilution method; type: functional; conditions: HK14368/08, 48 h
Pseudomonas aeruginosa [25] = experiment: Antibacterial activity against Pseudomonas aeruginosa ATCC 9027 after 24 hrs by broth microdilution method; type: functional; conditions: ATCC 9027, 24 h
Pseudomonas aeruginosa [26] = experiment: Antibacterial activity against Pseudomonas aeruginosa ATCC 9027 after 48 hrs by broth microdilution method; type: functional; conditions: ATCC 9027, 48 h
Candida albicans [27] = experiment: Antifungal activity against Candida albicans ATCC 44859 after 24 hrs by broth microdilution method; type: functional; conditions: ATCC 44859, 24 h
Candida albicans [28] = experiment: Antifungal activity against Candida albicans ATCC 44859 after 48 hrs by broth microdilution method; type: functional; conditions: ATCC 44859, 48 h
Candida tropicalis [29] = experiment: Antifungal activity against Candida tropicalis 156 after 24 hrs by broth microdilution method; type: functional; conditions: Candida tropicalis, 156, 24 h
Candida tropicalis [30] = experiment: Antifungal activity against Candida tropicalis 156 after 48 hrs by broth microdilution method; type: functional; conditions: Candida tropicalis, 156, 48 h
Pichia kudriavzevii [31] = experiment: Antifungal activity against Candida krusei E28 after 24 hrs by broth microdilution method; type: functional; conditions: E28, 24 h
Pichia kudriavzevii [32] = experiment: Antifungal activity against Candida krusei E28 after 48 hrs by broth microdilution method; type: functional; conditions: E28, 48 h
Nakaseomyces glabratus [33] = experiment: Antifungal activity against Candida glabrata 20/I after 24 hrs by broth microdilution method; type: functional
Nakaseomyces glabratus [34] = experiment: Antifungal activity against Candida glabrata 20/I after 48 hrs by broth microdilution method; type: functional
Trichosporon asahii [35] = experiment: Antifungal activity against Trichosporon asahii 1188 after 24 hrs by broth microdilution method; type: functional; conditions: Trichosporon asahii, 1188, 24 h
Trichosporon asahii [36] = experiment: Antifungal activity against Trichosporon asahii 1188 after 48 hrs by broth microdilution method; type: functional; conditions: Trichosporon asahii, 1188, 48 h
Aspergillus fumigatus [37] = experiment: Antifungal activity against Aspergillus fumigatus 231 after 24 hrs by broth microdilution method; type: functional; conditions: Aspergillus fumigatus, 231, 24 h
Aspergillus fumigatus [38] = experiment: Antifungal activity against Aspergillus fumigatus 231 after 48 hrs by broth microdilution method; type: functional; conditions: Aspergillus fumigatus, 231, 48 h
Lichtheimia corymbifera [39] = experiment: Antifungal activity against Absidia corymbifera 272 after 24 hrs by broth microdilution method; type: functional; conditions: Lichtheimia corymbifera, 272, 24 h
Lichtheimia corymbifera [40] = experiment: Antifungal activity against Absidia corymbifera 272 after 48 hrs by broth microdilution method; type: functional; conditions: Lichtheimia corymbifera, 272, 48 h
[41] = tested on: Trichophyton mentagrophytes; experiment: Antifungal activity against Trichophyton mentagrophytes 445 after 72 hrs by broth microdilution method; type: functional; conditions: Trichophyton mentagrophytes, 445, 72 h
[42] = tested on: Trichophyton mentagrophytes; experiment: Antifungal activity against Trichophyton mentagrophytes 445 after 120 hrs by broth microdilution method; type: functional; conditions: Trichophyton mentagrophytes, 445, 120 h

SMILES: O=[N+]([O-])c1cc(-c2nnn(Cc3ccccc3F)n2)cc([N+](=O)[O-])c1
- MIC99 [1]: 0.5 µM (≈ 0.172 µg/mL)
- MIC99 [2]: 0.5 µM (≈ 0.172 µg/mL)
- MIC99 (Mycobacterium avium [3]): 8 µM (≈ 2.75 µg/mL)
- MIC99 (Mycobacterium avium [4]): 16 µM (≈ 5.51 µg/mL)
- MIC99 (Mycobacterium kansasii [5]): 0.5 µM (≈ 0.172 µg/mL)
- MIC99 (Mycobacterium kansasii [6]): 1 µM (≈ 0.344 µg/mL)
- MIC99 (Mycobacterium kansasii [7]): 2 µM (≈ 0.689 µg/mL)
- MIC99 (Mycobacterium kansasii [8]): 1 µM (≈ 0.344 µg/mL)
- MIC99 (Mycobacterium kansasii [9]): 1 µM (≈ 0.344 µg/mL)
- MIC99 (Mycobacterium kansasii [10]): 2 µM (≈ 0.689 µg/mL)
- IC50 (CHO-K1): > 200 µM
- MIC (Staphylococcus aureus [11]): 500 µM (≈ 172 µg/mL)
- MIC (Staphylococcus aureus [12]): 500 µM (≈ 172 µg/mL)
- MIC (Staphylococcus aureus [13]): 500 µM (≈ 172 µg/mL)
- MIC (Staphylococcus aureus [14]): 500 µM (≈ 172 µg/mL)
- MIC [15]: 250 µM (≈ 86.1 µg/mL)
- MIC [16]: 250 µM (≈ 86.1 µg/mL)
- MIC (Enterococcus sp. [17]): > 500 µM
- MIC (Enterococcus sp. [18]): > 500 µM
- MIC (Escherichia coli [19]): > 500 µM
- MIC (Escherichia coli [20]): > 500 µM
- MIC (Klebsiella pneumoniae [21]): > 500 µM
- MIC (Klebsiella pneumoniae [22]): > 500 µM
- MIC (Klebsiella pneumoniae [23]): > 500 µM
- MIC (Klebsiella pneumoniae [24]): > 500 µM
- MIC (Pseudomonas aeruginosa [25]): > 500 µM
- MIC (Pseudomonas aeruginosa [26]): > 500 µM
- MIC (Candida albicans [27]): > 500 µM
- MIC (Candida albicans [28]): > 500 µM
- MIC (Candida tropicalis [29]): > 500 µM
- MIC (Candida tropicalis [30]): > 500 µM
- MIC (Pichia kudriavzevii [31]): > 500 µM
- MIC (Pichia kudriavzevii [32]): > 500 µM
- MIC (Nakaseomyces glabratus [33]): > 500 µM
- MIC (Nakaseomyces glabratus [34]): > 500 µM
- MIC (Trichosporon asahii [35]): > 500 µM
- MIC (Trichosporon asahii [36]): > 500 µM
- MIC (Aspergillus fumigatus [37]): > 500 µM
- MIC (Aspergillus fumigatus [38]): > 500 µM
- MIC (Lichtheimia corymbifera [39]): > 500 µM
- MIC (Lichtheimia corymbifera [40]): > 500 µM
- MIC [41]: > 500 µM
- MIC [42]: > 500 µM

SMILES: COc1cccc(Cn2nnc(-c3cc([N+](=O)[O-])cc([N+](=O)[O-])c3)n2)c1
- MIC99 [1]: 1 µM (≈ 0.356 µg/mL)
- MIC99 [2]: 1 µM (≈ 0.356 µg/mL)
- MIC99 (Mycobacterium avium [3]): 4 µM (≈ 1.43 µg/mL)
- MIC99 (Mycobacterium avium [4]): 8 µM (≈ 2.85 µg/mL)
- MIC99 (Mycobacterium kansasii [5]): 1 µM (≈ 0.356 µg/mL)
- MIC99 (Mycobacterium kansasii [6]): 2 µM (≈ 0.713 µg/mL)
- MIC99 (Mycobacterium kansasii [7]): 4 µM (≈ 1.43 µg/mL)
- MIC99 (Mycobacterium kansasii [8]): 1 µM (≈ 0.356 µg/mL)
- MIC99 (Mycobacterium kansasii [9]): 2 µM (≈ 0.713 µg/mL)
- MIC99 (Mycobacterium kansasii [10]): 2 µM (≈ 0.713 µg/mL)
- IC50 (CHO-K1): > 100 µM
- MIC (Staphylococcus aureus [11]): > 500 µM
- MIC (Staphylococcus aureus [12]): > 500 µM
- MIC (Staphylococcus aureus [13]): > 500 µM
- MIC (Staphylococcus aureus [14]): > 500 µM
- MIC [15]: > 500 µM
- MIC [16]: > 500 µM
- MIC (Enterococcus sp. [17]): > 500 µM
- MIC (Enterococcus sp. [18]): > 500 µM
- MIC (Escherichia coli [19]): > 500 µM
- MIC (Escherichia coli [20]): > 500 µM
- MIC (Klebsiella pneumoniae [21]): > 500 µM
- MIC (Klebsiella pneumoniae [22]): > 500 µM
- MIC (Klebsiella pneumoniae [23]): > 500 µM
- MIC (Klebsiella pneumoniae [24]): > 500 µM
- MIC (Pseudomonas aeruginosa [25]): > 500 µM
- MIC (Pseudomonas aeruginosa [26]): > 500 µM
- MIC (Candida albicans [27]): > 500 µM
- MIC (Candida albicans [28]): > 500 µM
- MIC (Candida tropicalis [29]): > 500 µM
- MIC (Candida tropicalis [30]): > 500 µM
- MIC (Pichia kudriavzevii [31]): > 500 µM
- MIC (Pichia kudriavzevii [32]): > 500 µM
- MIC (Nakaseomyces glabratus [33]): > 500 µM
- MIC (Nakaseomyces glabratus [34]): > 500 µM
- MIC (Trichosporon asahii [35]): > 500 µM
- MIC (Trichosporon asahii [36]): > 500 µM
- MIC (Aspergillus fumigatus [37]): > 500 µM
- MIC (Aspergillus fumigatus [38]): > 500 µM
- MIC (Lichtheimia corymbifera [39]): > 500 µM
- MIC (Lichtheimia corymbifera [40]): > 500 µM
- MIC [41]: > 500 µM
- MIC [42]: > 500 µM
